The source of these data is PMC5963095 (International Journal for Parasitology: Drugs and Drug …, 2017).

SMILES strings stand for the structures.

The target in one experiment is T1, PfEXP1 (Plasmodium falciparum, UniProt Q8IIF0).
T1 sequence (Q8IIF0 23-162): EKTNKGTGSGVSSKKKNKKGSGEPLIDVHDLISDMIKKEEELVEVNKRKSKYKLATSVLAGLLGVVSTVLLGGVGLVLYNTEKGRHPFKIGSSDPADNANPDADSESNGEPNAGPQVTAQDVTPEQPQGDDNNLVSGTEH
The experiment is described as follows: glutathione S-transferase assay, absorbance at […] nm. The class given is biochemical.

The target of experiment [1] is T2, PfEXP1 (expressed in Pichia pastoris) (Plasmodium falciparum, UniProt Q8IIF0).
T2 sequence (Q8IIF0 23-162): T1 sequence (Q8IIF0 23-162)
The experiment is described as above. The class given is biochemical.

Consider `CCN(CC)CCCC(C)Nc1ccnc2cc(Cl)ccc12` (stereo not drawn) [chloroquine], for which the IC50 at PfEXP1 worked out at 19.3 ± 2.67 nM; in experiment [1], 11.1 ± 4.12 nM.

On to `C=C[C@H]1C[N@@]2CC[C@H]1C[C@H]2[C@H](O)c1ccnc2ccc(OC)cc12` [quinine], for which, in experiment [1], the midpoint of inhibition, the IC50, lay at 179 ± 52.1 nM.
